Test results from patent publication US7786171B2, “Amide derivatives as positive allosteric modulators and methods of use thereof” (Abbott Laboratories, priority 2008, dated 2010).

Tests used:
[1] = biological target: T1, human α7 NNR (Homo sapiens, UniProt P36544); assay: Two-electrode voltage-clamp in Xenopus laevis oocytes, potentiation of ACh-evoked α7 currents; format: cell-based; conditions: for Voltage-Clamp in Xenopus laevis Oocytes % max (degree of normalized potentiation): 0.1 mM ACh, normalized to reference PAM at 10 μM = 100%, ACh alone = 0%; for EC50: potentiation of 0.1 mM ACh-evoked α7 currents
T1 construct: expressed in transfected cells; host or cells: Xenopus laevis oocytes (cRNA injection)
T1 sequence (P36544 23-502): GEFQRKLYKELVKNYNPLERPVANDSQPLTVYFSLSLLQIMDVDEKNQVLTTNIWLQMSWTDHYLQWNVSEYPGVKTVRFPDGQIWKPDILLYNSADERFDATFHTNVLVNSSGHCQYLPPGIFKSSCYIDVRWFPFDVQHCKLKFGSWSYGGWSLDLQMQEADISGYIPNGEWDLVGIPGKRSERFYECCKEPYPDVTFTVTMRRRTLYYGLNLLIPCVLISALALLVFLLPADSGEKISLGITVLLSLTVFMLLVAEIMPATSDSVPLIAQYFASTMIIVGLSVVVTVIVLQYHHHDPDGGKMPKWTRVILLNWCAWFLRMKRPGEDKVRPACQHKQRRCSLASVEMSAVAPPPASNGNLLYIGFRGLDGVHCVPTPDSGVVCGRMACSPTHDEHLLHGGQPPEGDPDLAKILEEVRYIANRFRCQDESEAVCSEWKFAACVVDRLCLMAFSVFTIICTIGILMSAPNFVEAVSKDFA
Description: X. laevis oocytes were prepared for electrophysiological experiments as described in the literature (see for example. Briggs, C. A. el al, Neuropharmacology. 1995. 34: 583-590; Briggs, C. A. et al., Neuropharmacology, 1998, 37: 1095-1102, which are incorporated herein by reference). In brief, three to four lobes from ovaries of female adult X. laevis frogs were removed and defolliculated after treatment with collagenase type 1A (2 mg/mL; Sigma) prepared in low-Ca^2+ Barth's solution (90 mM NaCl, 1.0 mM KCl, 0.66 mM NaNO3, 2.4 mM NaHCO3, 10 mM HEPES, 2.5 mM sodium pyruvate, 0.82 mM MgCl2, and 0.5% (v/v) penicillin-streptomycin solution, pH=7.55, Sigma) for about 1.5 hours to about 2 hours at about 18° C. under constant agitation to obtain isolated oocytes.
The isolated oocytes were injected with about 4 ng to about 6 ng of human α7 NNR cRNA, kept at about 18° C. in a humidified incubator in modified Barth's solution (90 mM NaCl, 1.0 mM KCl, 0.66 mM NaNO3, 2.4 mM NaHCO3, 10 mM HEPES, 2.5 mM sodium pyruvate, 0.74 mM CaCl2, 0.82 mM MgCl2, 0.5% (v/v) penicillin-streptomycin solution, pH 7.55) and used about 2 to 7 days after injection. Responses were measured by two-electrode voltage clamp using a Parallel Oocyte Electrophysiology Test Station (Abbott, Abbott Park, Ill.) (see for example, Trumbull, J. D., et al., Receptors Channels, 2003, 9: 19-28, which is incorporated herein by reference). During recordings, the oocytes were bathed in Ba^2+-OR2 solution (90 mM NaCl, 2.5 mM KCl, 2.5 mM BaCl2, 1.0 mM MgCl2, 5.0 mM HEPES, and 0.0005 mM atropine, pH 7.4) to prevent activation of Ca^2+-dependent currents and held at −60 mV at room temperature (about 20° C.). Test compounds were pre-applied alone for […] and subsequently in the presence of 0.1 mM acetylcholine (ACh) as the agonist. The data were expressed as percentage potentiation of the acetylcholine-evoked current normalized to the response of reference PAM (at 10 μM, N′-[(2Z)-3-(2,2-difluoro-1,3-benzodioxol-5-yl)-5-methyl-1,3-thiazol-2(3 H)-ylidene]-N,N-dimethylurea) taken as 100% and the response to submaximum ACh without any PAM as 0%.

[2] = biological target: T2, σ2 receptors (Rattus norvegicus, UniProt Q5U3Y7); assay: Sigma receptor binding assay, σ2 ([3H]1,3-di(2-tolyl)guanidine displacement); conditions: test compound 10 μM; rat cerebral cortex
T2 construct: The origin of the (σ1 and σ2 receptors were Jurkat cells and rat cerebral cortex, respectively); from tissue; host or cells: rat cerebral cortex
T2 sequence (Q5U3Y7 1-176): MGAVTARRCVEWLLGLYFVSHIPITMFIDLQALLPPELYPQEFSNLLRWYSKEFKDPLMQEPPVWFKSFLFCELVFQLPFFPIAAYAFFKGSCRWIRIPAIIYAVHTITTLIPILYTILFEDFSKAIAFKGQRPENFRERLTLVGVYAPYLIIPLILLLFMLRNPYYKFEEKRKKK
Description: (§1) Sigma receptors are binding sites that interact with several psychoactive agents. Inhibition of specific binding of known ligands to sigma receptors (σ1 and σ2) was used to determine the selectivity of test compounds. The assays were performed as described previously in the literature (non-selective σ: Shirayama, Y., et al. Eur. J. Pharmacol. (1993), 237: 117-126. σ1: Ganapathy, M. E., et al. J. Pharmacol. Exp. Ther. (1999) 289: 251-260. σ2: Bowen, M. D., et al. Mol. Neuropharmacol. (1993) 3: 117-126.). The origin of the non-selective a receptors was rat cerebral cortex. The origin of the (σ1 and σ2 receptors were Jurkat cells and rat cerebral cortex, respectively.
(§2) Affinity for the receptors was determined by competitive displacement of specific ligands (8 nM of [^3H] 1,3-di(2-tolyl)guanidine for non-selective σ, 8 nM of [^3H](+)pentazocine for σ1 and 5 nM of [^3H]1,3-di(2-tolyl)guanidine for σ2) by test compounds. Nonspecific binding was determined by addition of an excess of an unlabelled binder (10 μM haloperidol).
(§3) The results are expressed as a percent inhibition of control specific binding (100−((measured specific binding/control specific binding)×100)) obtained in the presence of test compound (10 μM) as shown in Table 1. In addition, Table 1 includes data for the selected compounds from the voltage-clamp in Xenopus laevis oocytes assay.

[3] = biological target: T3, σ1 receptors (Homo sapiens, UniProt Q99720); assay: Sigma receptor binding assay, σ1 ([3H](+)pentazocine displacement, Jurkat cells); conditions: test compound 10 μM
T3 construct: The origin of the (σ1 and σ2 receptors were Jurkat cells and rat cerebral cortex, respectively); endogenous in cells; host or cells: Jurkat cells
T3 sequence (Q99720 whole entry): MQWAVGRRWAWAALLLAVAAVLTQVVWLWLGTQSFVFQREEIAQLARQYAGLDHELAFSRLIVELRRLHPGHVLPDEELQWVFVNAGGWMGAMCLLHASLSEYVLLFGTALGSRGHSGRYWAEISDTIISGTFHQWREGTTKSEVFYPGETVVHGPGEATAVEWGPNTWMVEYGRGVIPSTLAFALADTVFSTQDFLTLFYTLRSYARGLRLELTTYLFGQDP
Description: as §1, §2, §3

[4] = tested on: non-selective σ receptors; assay: Sigma receptor binding assay, non-selective σ ([3H]1,3-di(2-tolyl)guanidine displacement); conditions: test compound 10 μM; rat cerebral cortex
Description: as §1, §2, §3

[5] = tested on: sensory gating T:C ratio; assay: Sensory gating deficit in DBA/2 mice (N40 gating) assay; format: in vivo; conditions: dose 0.01 μmol/kg
Excerpt: Sensory gating is a basic central nervous system function that facilitates attending to important stimuli, and ignoring irrelevant background noise. A practical example of sensory gating is the ability to follow a conversation at a loud party. An experimental measure of sensory gating is the suppression of brainwave (evoked potential) responding to repetitive auditory stimuli. Schizophrenic patients can not suppress responding to repetitive stimuli, and are therefore considered to have sensory gating deficiencies.
DBA/2 mice (20-25 g, 8-10 week, Harlan) were used for gating experiments and handled in accordance with approved Association for Assessment and Accreditation of Laboratory Animal Care procedures. Mice were given food and water ad libitum and maintained on a 12-hour light/dark cycle (lights on at 0600 hours).
The surgical techniques employed were similar to those previously described (Connolly P M, et al. (2003) Brain Res 992(1):85-95). […]
To obtain EEG and evoked potentials (EPs), unanesthetized mice were recorded in acoustically isolated chambers (Med Associates). EEG biosignals were recorded from freely moving mice using flexible cable tethers and electrical swivels (Plastics One) and amplified with differential AC amplifiers (Grass Instrument Division, Astro-Med, West Warwick, R.I. USA). […]

[6] = tested on: formalin-induced nociceptive behavior; assay: Formalin-induced persistent nociceptive behavior assay; format: in vivo; conditions: mice; 10 mg/kg subcutaneously 10 minutes prior to formalin; phase 2, 20-45 minutes post formalin
Description: Nociception was assessed using the formalin test. The mice were placed in open plexiglass observation chambers for 30 minutes to allow them to acclimate to their surroundings: then they were removed for formalin administration. Mice were gently restrained while the dorsum of the hind paw was injected with 20 μL of 2.5% formalin into the plantar surface of the right hind paw with a 30-gauge needle. The animals were returned to the chambers and nociceptive behavior was observed immediately after formalin injection. Mirrors were placed in each chamber to enable unhindered observation. Nociceptive behavior was quantified as the time licking the injected paw for continuous 5 minutes (phase 1) and 20-45 minutes (phase 2), following formalin injection. Formalin-induced flinching/licking behavior was biphasic. The initial acute phase (phase 1.0-5 minutes) was followed by a relatively short quiescent period, which was then followed by a prolonged tonic response (phase 2, 20-45 minutes).

[7] = biological target: α7 NNRs (Homo sapiens, UniProt P36544); conditions: IMR-32 cells
Chain of α7 NNRs (P36544 23-502): as the sequence (P36544 23-502) above
Description: Although cell types such as IMR-32 neuroblastoma and neurons are known to contain several nicotinic receptor subunits, α7 selective agonists in the present assay selectively stimulate calcium responses only in the presence of PAMs. Any suitable selective α7 agonist can be used.
IMR-32 neuroblastoma cells (ATCC) were grown to confluency in 162 cm^2 tissue culture flasks in minimum essential media supplemented with 10% fetal bovine serum and 1 mM sodium pyruvate, 0.1 mM non-essential amino acids and 1% antibiotic-antimycotic. […]
Calcium flux was measured using a calcium-3 assay kit (Molecular Devices, Sunnyvale, Calif.) or Fluo-4 (Invitrogen, Carlsbad, Calif.). […] Fluorescence measurements were read simultaneously from all the wells by a Fluorometric Imaging Plate Reader (FLIPR) at an excitation wavelength of 480 nm and an emission wavelength of 520 nm. Baseline fluorescence was measured for the first 10 seconds at which 50 μL of 3× concentrations of modulator/test compounds were added to the cell plate and incubated for three to five minutes. The fluorescence intensity was captured every second for the first 1 minute followed by every 2-5 seconds for an additional two to four minutes. This procedure was followed by 50 μL of 4× concentration of agonist and readings were taken for a period of three to five minutes as described above. […]

## O=C(NCc1cccc(-n2cccn2)c1)c1ccc(SC(F)(F)F)cc1 [Example 12, N-[3-(1H-pyrazol-1-yl)benzyl]-4-[(trifluoromethyl)thio]benzamide]
[1]
  Voltage-Clamp in Xenopus laevis Oocytes % max (degree of normalized potentiation): 61%
  EC50: 3700 nM

## CN(C)c1ccc(CNC(=O)c2ccc(SC(F)(F)F)cc2)cc1 [Example 17, N-[4-(dimethylamino)benzyl]-4-[(trifluoromethyl)thio]benzamide]
[1]
  Voltage-Clamp in Xenopus laevis Oocytes % max (degree of normalized potentiation): 94%
  EC50: 180 nM
[2]
  inhibition at 10 µM: -1%
[3]
  inhibition at 10 µM: 8%

## Nc1ccc(CNC(=O)c2ccc(SC(F)(F)F)cc2)cc1 [Example 19, N-(4-aminobenzyl)-4-[(trifluoromethyl)thio]benzamide]
[4]
  % Inhibition of Binding at 10 μM σ: 6%
[1]
  Voltage-Clamp in Xenopus laevis Oocytes % max (degree of normalized potentiation): 120%
  EC50: 5400 nM

## CNc1ccc(CNC(=O)c2ccc(SC(F)(F)F)cc2)cc1 [Example 20, N-[4-(methylamino)benzyl]-4-[(trifluoromethyl)thio]benzamide]
[5]
  reduction of T:C (test:conditioned) ratios compared to vehicle: 23.7±8.9%
[6]
  reduction in licking duration (nociceptive behavior), phase 2: 68%
[4]
  % Inhibition of Binding at 10 μM σ: 39%
[1]
  Voltage-Clamp in Xenopus laevis Oocytes % max (degree of normalized potentiation): 99%
  EC50: 97 nM

## CNc1ccc(CNC(=O)c2ccc(SC(F)F)cc2)cc1 [Example 22, 4-[(difluoromethyl)thio]-N-[4-(methylamino)benzyl]benzamide]
[1]
  Voltage-Clamp in Xenopus laevis Oocytes % max (degree of normalized potentiation): 115%
  EC50: 1200 nM
[2]
  inhibition at 10 µM: -4%
[3]
  inhibition at 10 µM: 21%

## O=C(Cc1ccc(NCC2CC2)cc1)Nc1ccc(SC(F)F)cc1 [Example 43, 2-{4-[(cyclopropylmethyl)amino]phenyl}-N-{4-[(difluoromethyl)thio]phenyl}acetamide]
[1]
  Voltage-Clamp in Xenopus laevis Oocytes % max (degree of normalized potentiation): 2%
  EC50: > 10000 nM
[2]
  inhibition at 10 µM: 34%
[3]
  inhibition at 10 µM: 84%

## CCN1C[C@]2(COC(=O)c3ccccc3N3C(=O)C[C@H](C)C3=O)CC[C@H](OC)[C@@]34[C@@H]5C[C@H]6[C@H](OC)[C@@H]5[C@](O)(C[C@@H]6OC)[C@@](O)([C@@H](OC)[C@H]23)[C@@H]14 [methyllycaconitine]
[7]
  calcium response to agonist in the presence of an allosteric modulator: abolished the response
